Patent US10273233B2, “Inhibitors of influenza viruses replication” (Vertex Pharmaceuticals Incorporated, priority 2015, dated 2019)

Tests used:
[1] = system: A/New York/18/2009; test: 3-day CP assay in MDCK cells; type: cell-based; details: Influenza A virus
[2] = system: A/Weiss/43; test: 3-day CP assay in MDCK cells; type: cell-based; details: Influenza A virus
[3] = system: A/Missouri/3/2006; test: 3-day CP assay in MDCK cells; type: cell-based; details: Influenza A virus
[4] = system: A/Georgia/17/2006; test: 3-day CP assay in MDCK cells; type: cell-based; details: Influenza A virus
[5] = system: A/Swine/Iowa/15/30; test: microbe, parasite or virus in culture; type: cell-based, influenza A; details: read-out: EC50
[6] = system: A/Mexico/4108/2009; test: 3-day CP assay in MDCK cells; type: cell-based; details: Influenza A virus
[7] = system: A/Equine/Miami/63; test: microbe, parasite or virus in culture; type: cell-based; details: Influenza A virus, MDCK
[8] = system: A/California/07/2009 NYMC, X-179A; test: 3-day CP assay in MDCK cells; type: cell-based; details: Influenza A virus
[9] = system: A/Uruguay/716/2007; test: 3-day CP assay in MDCK cells; type: cell-based; details: Influenza A virus
[10] = system: A/NWS/33; test: 3-day CP assay in MDCK cells; type: cell-based, influenza A
[11] = system: A/Virginia/ATCC2/2009; test: 3-day CP assay in MDCK cells; type: cell-based; details: Influenza A virus
[12] = system: B/Memphis/20/1996--071; test: 3-day CP assay in MDCK cells; type: cell-based; details: Influenza B virus
[13] = system: A/California/07/2009; test: 3-day CP assay in MDCK cells; type: cell-based; details: Influenza A virus, H1N1, MDCK, in Sus scrofa
[14] = system: A/Aichi/2/68; test: 3-day CP assay in MDCK cells; type: cell-based; details: Influenza A virus
[15] = system: B/Memphis/20/1996--070; test: 3-day CP assay in MDCK cells; type: cell-based; details: Influenza B virus
[16] = system: A/Hawaii/2/2006; test: 3-day CP assay in MDCK cells; type: cell-based; details: Influenza A virus
[17] = system: A/Henan/Jinshui/147/2007; test: 3-day CP assay in MDCK cells; type: cell-based; details: Influenza A virus
[18] = system: A/Virginia/ATCC3/2009; test: 3-day CP assay in MDCK cells; type: cell-based; details: Influenza A virus
[19] = system: A/Swine/1976/31; test: microbe, parasite or virus in culture; type: cell-based; details: Influenza A virus, MDCK, in Sus scrofa
[20] = system: A/Virginia/01/2006; test: 3-day CP assay in MDCK cells; type: cell-based; details: Influenza A virus
[21] = system: A/Santiago/7981/2006; test: 3-day CP assay in MDCK cells; type: cell-based; details: Influenza A virus
[22] = system: A/WS/33; test: 3-day CP assay in MDCK cells; type: cell-based; details: Influenza A virus
[23] = system: B/Mass/3/66; test: 3-day CP assay in MDCK cells; type: cell-based; details: Influenza B virus
[24] = system: A/Texas/48/2009; test: 3-day CP assay in MDCK cells; type: cell-based; details: Influenza A virus
[25] = system: A/New Jersey/8/76; test: microbe, parasite or virus in culture; type: cell-based; details: Influenza A virus, MDCK
[26] = system: A/Denver/1/57; test: 3-day CP assay in MDCK cells; type: cell-based; details: Influenza A virus
[27] = system: A/Port Chalmers/1/73; test: 3-day CP assay in MDCK cells; type: cell-based; details: Influenza A virus
[28] = system: A/Hong Kong/8/68; test: 3-day CP assay in MDCK cells; type: cell-based; details: Influenza A virus
[29] = system: influenza B; test: Influenza B mouse model, Compound (1) with oseltamivir; type: in vivo, Mice
Procedure: The consequence of combining Compound (1) and oseltamivir was explored in the influenza B mouse model. Mice were dosed prophylactically with vehicle (10 mL/kg 0.5% MC), 10 mg/kg oseltamivir, or oseltamivir in combination with Compound (1) at 10 mg/kg, 30 mg/kg or 60 mg/kg BID and treatment continued for 10 days.

[30] = system: A/Victoria/3/75; test: 3-day CP assay in MDCK cells; type: cell-based; details: Influenza A virus
[31] = system: A/Chelyabinsk/1/200; test: 3-day CP assay in MDCK cells; type: cell-based; details: Influenza A virus
[32] = system: A/Texas/12/2007; test: 3-day CP assay in MDCK cells; type: cell-based; details: Influenza A virus
[33] = system: A/VN/1203/2004 (H5N1); test: microbe, parasite or virus in culture; type: cell-based; details: Influenza A virus, H5N1, MDCK
[34] = system: A/Fukushima/141/2006; test: 3-day CP assay in MDCK cells; type: cell-based; details: Influenza A virus
[35] = system: A/Wisconsin/67/2005; test: 3-day CP assay in MDCK cells; type: cell-based; details: Influenza A virus
[36] = system: A/Georgia/20/2006; test: 3-day CP assay in MDCK cells; type: cell-based, influenza A
[37] = system: influenza type A (H1N1, H3N2, and H3N8) viral strains; type: cell-based
[38] = system: B/Lee/40; test: 3-day CP assay in MDCK cells; type: cell-based; details: Influenza B virus
[39] = system: A/Mal/302/54; test: 3-day CP assay in MDCK cells; type: cell-based; details: Influenza A virus
[40] = system: A/St. Petersburg8/2006; test: 3-day CP assay in MDCK cells; type: cell-based; details: Influenza A virus
[41] = system: A/Cambodia0371/2007; test: 3-day CP assay in MDCK cells; type: cell-based; details: Influenza A virus
[42] = system: A/Puerto Rico/8/34; test: 3-day CP assay in MDCK cells; type: cell-based; details: Influenza A virus
[43] = system: A/South Dakota/6/2007; test: 3-day CP assay in MDCK cells; type: cell-based; details: Influenza A virus
[44] = system: B/Russia/69; test: 3-day CP assay in MDCK cells; type: cell-based; details: Influenza B virus
[45] = system: A/FM/1/47; test: 3-day CP assay in MDCK cells; type: cell-based; details: Influenza A virus

## CC(C)(C)[C@@H](CC(=O)O)Nc1nc(-c2c[nH]c3ncc(F)cc23)ncc1F [Compound (1)]
[1]
  EC50: 1.4 nM
[2]
  EC50: 1.3 nM
[3]
  EC50: 2.6 nM
[4]
  EC50: 9.1 nM
[5]
  EC50: 4.3 nM
[6]
  EC50: 3.7 nM
[7]
  EC50: 3.7 nM
[8]
  EC50: 10 nM
[9]
  EC50: 1 nM
[10]
  EC50: 1.7 nM
[11]
  EC50: 1.4 nM
[12]
  EC50: > 10000 nM
[13]
  EC50: 4 nM
[14]
  EC50: 4.4 nM
[15]
  EC50: > 10000 nM
[16]
  EC50: 1.2 nM
[17]
  EC50: 19 nM
[18]
  EC50: 1.2 nM
[19]
  EC50: 5.2 nM
[20]
  EC50: 12 nM
[21]
  EC50: 1.8 nM
[22]
  EC50: 2.4 nM
[23]
  EC50: > 10000 nM
[24]
  EC50: 1.2 nM
[25]
  EC50: 0.96 nM
[26]
  EC50: 1.4 nM
[27]
  EC50: 2.3 nM
[28]
  EC50: 1.9 nM
[29]; 10, 30 or 60 mg/kg BID Compound (1) in combination with oseltamivir 10 mg/kg BID, prophylactic, 10 days
  survival benefit and protection from BW and lung function loss: the same survival benefit and protection from BW and lung function loss as oseltamivir treatment alone
[29]; Compound (1) added to oseltamivir therapy
  interaction when added to oseltamivir therapy: no negative interaction
[29]; mouse, in vivo
  activity against influenza B: lack of Compound (1) activity against influenza B
[30]
  EC50: 2.1 nM
[31]
  EC50: 3.1 nM
[32]
  EC50: 30 nM
[33]
  EC50: 4.2 nM
[34]
  EC50: 1.5 nM
[35]
  EC50: 3.7 nM
[36]
  EC50: 1.7 nM
[37]
  EC50: 4.3 nM
[38]
  EC50: > 10000 nM
[39]
  EC50: 3.9 nM
[40]
  EC50: 1.3 nM
[41]
  EC50: 1.2 nM
[42]
  EC50: 14 nM
[43]
  EC50: 0.52 nM
[44]
  EC50: > 10000 nM
[45]
  EC50: 1.5 nM
